Experimental findings from patent publication US7432262B2, “Imidazopyridazinediones, their preparation and their use as pharmaceutical compositions” (Boehringer Ingelheim International GmbH, priority 2004, dated 2008) are described below.

For the experiment, the target named is T1, DPP-IV (Homo sapiens, UniProt P27487).
T1 construct: an extract of the human colon carcinoma cell line Caco-2 is used as the DPP IV source; endogenous in cells; host or cells: Caco-2 (human colon carcinoma), differentiated to induce DPP-IV expression; extract solubilized with Nonidet-P40
T1 sequence (P27487 whole entry): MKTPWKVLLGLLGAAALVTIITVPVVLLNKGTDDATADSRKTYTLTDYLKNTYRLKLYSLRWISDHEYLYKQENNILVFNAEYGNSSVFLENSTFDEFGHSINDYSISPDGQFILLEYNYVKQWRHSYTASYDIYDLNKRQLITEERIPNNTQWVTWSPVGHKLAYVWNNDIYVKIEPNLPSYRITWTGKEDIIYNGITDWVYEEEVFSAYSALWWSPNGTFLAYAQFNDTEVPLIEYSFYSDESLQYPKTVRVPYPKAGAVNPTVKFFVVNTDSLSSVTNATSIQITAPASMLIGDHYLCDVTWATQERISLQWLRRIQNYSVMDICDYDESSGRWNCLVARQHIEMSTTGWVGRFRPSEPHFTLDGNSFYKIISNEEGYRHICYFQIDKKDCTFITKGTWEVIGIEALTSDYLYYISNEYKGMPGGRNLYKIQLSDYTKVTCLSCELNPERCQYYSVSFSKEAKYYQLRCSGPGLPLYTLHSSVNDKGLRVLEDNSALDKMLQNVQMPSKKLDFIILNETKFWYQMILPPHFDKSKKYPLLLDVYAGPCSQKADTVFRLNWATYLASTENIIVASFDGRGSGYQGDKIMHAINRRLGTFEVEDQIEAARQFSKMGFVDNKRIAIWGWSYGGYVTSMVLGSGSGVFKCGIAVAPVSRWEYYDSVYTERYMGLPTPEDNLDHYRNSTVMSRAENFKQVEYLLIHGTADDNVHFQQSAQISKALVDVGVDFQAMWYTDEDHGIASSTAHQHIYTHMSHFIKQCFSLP
In words: DPP-IV assay with Caco-2 cell extract as DPP IV source. It counts as biochemical. As to conditions: extract of human colon carcinoma cell line Caco-2; AFC substrate 100 μM; 60 minutes, ambient temperature; 11-point curves; read-out: DPP IV inhibition IC50. Here is the method: The differentiation of the cells in order to induce the DPP-IV expression was carried out in accordance with the description by Reiher et al. in an article entitled “Increased expression of intestinal cell line Caco-2” that appeared in Proc. Natl. Acad. Sci. Vol. 90, pp. 5757-5761 (1993). The cell extract was obtained from cells solubilized in a buffer (10 mM Tris HCl, 0.15 M NaCl, 0.04 t.i.u. aprotinin, 0.5% Nonidet-P40, pH 8.0) by centrifugation at 35,000 g for 30 minutes at 4° C. (to remove cell debris).
The DPP-IV assay was carried out as follows:
50 μl of substrate solution (AFC; AFC is amido-4-trifluoromethylcoumarin), final concentration 100 μM, was placed in black microtitre plates. 20 μl of assay buffer (final concentrations 50 mM Tris HCl pH 7.8, 50 mM NaCl, 1% DMSO) was pipetted therein. The reaction was started by the addition of 30 μl of solubilized Caco-2 protein (final concentration 0.14 μg of protein per well). The test substances under investigation were typically added prediluted to 20 μl, while the volume of assay buffer was then reduced accordingly. The reaction was carried out at ambient temperature, the incubation period was 60 minutes. Then the fluorescence was measured in a Victor 1420 Multilabel Counter, with the excitation wavelength at 405 nm and the emission wavelength at 535 nm. Dummy values (corresponding to 0% activity) were obtained in mixtures with no Caco-2 protein (volume replaced by assay buffer), control values (corresponding to 100% activity) were obtained in mixtures without any added substance. The potency of the test substances in question, expressed as IC50 values, were calculated from dosage/activity curves consisting of 11 measured points in each case.
`CC#CCn1c(N2CCC[C@@H](N)C2)nc2c(=O)n(C)n(Cc3ccc4ccccc4n3)c(=O)c21` [1(1), (R)-1-(but-2-ynyl)-2-(3-amino-piperidin-1-yl)-5-methyl-6-(quinolin-2-ylmethyl)-5,6-dihydro-1H-imidazo[4,5-d]pyridazine-4,7-dione×2 trifluoroacetic acid]: the concentration for half-maximal inhibition (IC50) (commonly the concentration at which inhibition is half-maximal) came to 4 nM. For `C=CCn1c(=O)c2nc(N3CCC[C@@H](N)C3)n(CC#CC)c2c(=O)n1Cc1ccc2ccccc2n1` [1(2), (R)-1-(but-2-ynyl)-2-(3-amino-piperidin-1-yl)-5-(prop-2-enyl)-6-(quinolin-2-ylmethyl)-5,6-dihydro-1H-imidazo[4,5-d]pyridazine-4,7-dione×2 trifluoroacetic acid], the half-inhibitory concentration (IC50) is 6 nM. For the molecule `CC#CCn1c(N2CCC[C@@H](N)C2)nc2c(=O)n(Cc3ccccc3)n(Cc3ccc4ccccc4n3)c(=O)c21` [1(3), (R)-1-(but-2-ynyl)-2-(3-amino-piperidin-1-yl)-5-(phenylmethyl)-6-(quinolin-2-ylmethyl)-5,6-dihydro-1H-imidazo[4,5-d]pyridazine-4,7-dione×2 trifluoroacetic acid], the half-maximal inhibitory concentration (IC50) amounted to 14 nM. The result for `CC#CCn1c(N2CCC[C@@H](N)C2)nc2c(=O)n(C)n(Cc3cccc4ccccc34)c(=O)c21` [1(4), (R)-1-(but-2-ynyl)-2-(3-amino-piperidin-1-yl)-5-methyl-6-(naphth-1-ylmethyl)-5,6-dihydro-1H-imidazo[4,5-d]pyridazine-4,7-dione×1 trifluoroacetic acid] reads 52 nM; that for `CC#CCn1c(N2CCC[C@@H](N)C2)nc2c(=O)n(CC#N)n(Cc3ccc4ccccc4n3)c(=O)c21` [Example 1, (R)-1-(but-2-ynyl)-2-(3-amino-piperidin-1-yl)-5-cyanomethyl-6-(quinolin-2-ylmethyl)-5,6-dihydro-1H-imidazo[4,5-d]pyridazine-4,7-dione×2 trifluoroacetic acid], 1 nM.
